Experimental data reported in patent US20180186815A1, “PHARMACEUTICAL COMPOSITIONS, METHODS FOR THEIR PREPARATION AND THEIR USE IN THE TREATMENT OF CANCER” (Urifer Ltd., priority 2016, published 2018).
Where two headings read alike, the source gives them in different places.

Tests used:
Type in all cases: cell-based
[1] = system: colon cancer cell line HCT 116; assay: Growth profile / viability of HCT116 colon cancer cells, XTT test; conditions: Homo sapiens, HCT-116, 96 h, Control DMSO = 100%, read-out: percentage of viable cells, HCT116
Procedure: (§1) The effect of the compounds Z522-XXX on the growth profile of cancer cells which express Fer was tested. The cells that were tested were: the colon cancer cell lines HT29 and HCT 116, RKO. The effect of each of the compounds on FS cells, a non malingnant fibroblastic cell line, was also studied.
(§2) Generally, cells were seeded in 96 wells microplates and were left to grow untreated overnight. Each of the compounds was dissolved in DMSO and was then added to each well in a final concentration of 5 μM. The concentration of DMSO in each well was 0.4% v/v. Untreated cells and cells subjected to 0.4% DMSO alone, served as controls. The percentage of viable cells in each well was determined 96 hours after compounds addition, using the XTT test (Berridge, M. V. et al, 2005).

[2] = Viability of FS non malignant fibroblastic cells, XTT test; conditions: FS cells (non-malignant fibroblastic cell line), Control DMSO = 100%, read-out: percentage of viable cells, FS
Procedure: as §1, §2

[3] = system: colon cancer cell line RKO; assay: Growth profile / viability of RKO colon cancer cells, XTT test; conditions: 96 h, Control DMSO = 100%, read-out: percentage of viable cells, RKO
Procedure: as §1, §2

[4] = system: colon cancer cell line HT29; assay: Growth profile / viability of HT29 colon cancer cells, XTT test; conditions: Homo sapiens, HT-29, 96 h, Control DMSO = 100%, read-out: percentage of viable cells, HT29
Procedure: as §1, §2

Row | Structure (SMILES) | viability at 5 µM ([1]; first HCT116 column) | viability at 5 µM ([1]; second HCT116 column) | viability at 96 h, 5 µM ([2]; first FS column) | viability at 96 h, 5 µM ([2]; second FS column) | viability at 5 µM ([3]; first RKO column) | viability at 5 µM ([3]; second RKO column) | viability at 5 µM ([4]; first HT29 column) | viability at 5 µM ([4]; second HT29 column)
1 | CC(C)c1ccc(-c2cn3nc(N4CCC(C(=O)N(C)CCc5ccncc5)CC4)sc3n2)cc1 [Compound Z522-0228, 1-[6-(4-isopropylphenyl)imidazo[2,1-b][1,3,4]thiadiazol-2-yl]-N-methyl-N-(2-pyridin-4-ylethyl)piperidine-4-carboxamide] | 82% | 70% | 111% | 113% | 51% | 55% | 58% | 61%
2 | Cc1c(-c2ccc(N3CCCC3)cc2)nc2sc(N3CCC(C(=O)N4CCN(C)CC4)CC3)nn12 [Compound Z522-0195, 5-methyl-2-{4-[(4-methyl-piperazin-1-yl)carbonyl]piperidin-1-yl}-6-(4-pyrrolidin-1-ylphenyl)imidazo [2,1-b][1,3,4]-thiadiazole] | 111% | 113% | 109% | 119% | 80% | 75% | 91% | 82%
3 | O=C(C1CCN(c2nn3cc(-c4ccc(Cl)cc4)nc3s2)CC1)N1CCN(c2ccccn2)CC1 [Compound Z522-0200, 6-(4-chlorophenyl)-2-{4-[(4-pyridin-2-ylpiperazin-1-yl)carbonyl]piperidin-1-yl}imidazo[2,1-b][1,3,4]thiadiazole] | 94% | 88% | 95% | 103% | 81% | 78% | 92% | 98%
4 | Cc1ccc(C)n1CCN1CCN(C(=O)C2CCN(c3nn4cc(-c5ccc(Cl)cc5)nc4s3)CC2)CC1 [Compound Z522-0209, 6-(4-chlorophenyl)-2-[4-({4-[2-(2,5-dimethyl-1H-pyrrol-1-yl)ethyl]piperazin-1-yl}carbonyl)piperidin-1-yl]imidazo[2,1-b][1,3,4]thiadiazole] | 71% | 59% | 89% | 96% | 52% | 55% | 25% | 30%
5 | CN(CCc1ccccn1)C(=O)C1CCN(c2nn3cc(-c4ccc(Cl)cc4)nc3s2)CC1 [Compound Z522-0203, 1-[6-(4-chlorophenyl)imidazo[2,1-b][1,3,4]thiadiazol-2-yl]-N-methyl-N-(2-pyridin-2-ylethyl) piperidine-4-carboxamide] | 75% | 75% | 90% | 94% | 48% | 48% | 74% | 88%
6 | Cc1c(-c2ccc(N3CCCCCCC3)cc2)nc2sc(N3CCC(C(=O)N4CCN(C)CC4)CC3)nn12 [Compound Z522-0191, 6-(4-azocan-1-ylphenyl)-5-methyl-2-{4-[(4-methylpiperazin-1-yl)carbonyl]-piperidin-1-yl}-imidazo[2,1-b]-[1,3,4]thiadiazole] | 39% | 41% | 103% | 101% | 23% | 35% | 12% | 10%
7 | CN1CCN(C(=O)C2CCN(c3nn4cc(-c5ccc(N6CCOCC6)cc5)nc4s3)CC2)CC1 [Compound Z522-0176, 2-{4-[(4-methyl-piperazin-1-yl)-carbonyl]piperidin-1-yl}-6-(4-morpholin-4-yl-phenyl)imidazo[2,1-b][1,3,4]-thiadiazole] | 109% | 116% | 103% | 100% | 92% | 89% | 112% | 112%
8 | Cc1c(-c2ccc(-n3cccn3)cc2)nc2sc(N3CCC(C(=O)N4CCN(C)CC4)CC3)nn12 [Compound Z522-0187, 5-methyl-2-{4-[(4-methyl-piperazin-1-yl)-carbonyl]piperidin-1-yl}-6-[4-(1H-pyrazol-1-yl)-phenyl]imidazo[2,1-b][1,3,4]-thiadiazole] | 110% | 97% | 92% | 94% | 56% | 56% | 99% | 111%
9 | Cc1c(-c2ccc(N(C)C)cc2)nc2sc(N3CCC(C(=O)N4CCN(C)CC4)CC3)nn12 [Compound Z522-0179, N,N-dimethyl-4-(5-methyl-2-{4-[(4-methyl-piperazin-1-yl)carbonyl]piperidin-1-yl}imidazo-[2,1-b][1,3,4]-thiadiazol-6-yl)-aniline] | 101% | 108% | 91% | 117% | 109% | 103% | 103% | 100%
10 | CC(C)c1ccc(-c2cn3nc(N4CCC(C(=O)N(C)CCc5ccccn5)CC4)sc3n2)cc1 [Compound Z522-0226, 1-[6-(4-isopropylphenyl)imidazo[2,1-b][1,3,4]thiadiazol-2-yl]-N-methyl-N-(2-pyridin-2-ylethyl)piperidine-4-carboxamide] | 80% | 80% | 91% | 99% | 72% | 64% | 101% | 92%
11 | Cc1c(-c2ccc(N3CCCCCC3)cc2)nc2sc(N3CCC(C(=O)N4CCN(C)CC4)CC3)nn12 [Compound Z522-0185, 6-(4-azepan-1-yl-phenyl)-5-methyl-2-{4-[(4-methyl-piperazin-1-yl)carbonyl]piperidin-1-yl}imidazo-[2,1-b][1,3,4]-thiadiazole] | 40% | 42% | 92% | 94% | 14% | 15% | 19% | 11%
12 | CC(C)c1ccc(-c2cn3nc(N4CCC(C(=O)N5CCCC(CN6CCOCC6)C5)CC4)sc3n2)cc1 (stereo not drawn) [Compound Z522-0237, 6-(4-isopropyl-phenyl)-2-(4-{[3-(morpholin-4-yl-methyl)piperidin-1-yl]carbonyl}piperidin-1-yl)imidazo[2,1-b][1,3,4]thiadiazole] | 74% | 89% | 82% | 105% | 11% | 8% | 13% | 8%
13 | Cc1c(-c2ccc(N3CCOCC3)cc2)nc2sc(N3CCC(C(=O)N4CCN(C)CC4)CC3)nn12 [Compound Z522-0196, 5-methyl-2-{4-[(4-methyl-piperazin-1-yl)-carbonyl]piperidin-1-yl}-6-(4-morpholin-4-ylphenyl)imidazo [2,1-b][1,3,4]-thiadiazole] | 105% | 104% | 86% | 94% | 88% | 93% | 104% | 101%
14 | CN1CCN(C(=O)C2CCN(c3nn4cc(-c5ccc(N6CCSCC6)cc5)nc4s3)CC2)CC1 [Compound Z522-0164, 2-{4-[(4-methylpiperazin-1-yl)carbonyl]-piperidin-1-yl}-6-(4-thiomorpholin-4-ylphenyl)-imidazo[2,1-b]-[1,3,4]thiadiazole] | 80% | 97% | 104% | 95% | 60% | 63% | 50% | 42%
15 | Cc1c(-c2ccc(N3CCC(C)CC3)cc2)nc2sc(N3CCC(C(=O)N4CCN(C)CC4)CC3)nn12 [Compound Z522-0190, 5-methyl-2-{4-[(4-methyl-piperazin-1-yl)-carbonyl]piperidin-1-yl}-6-[4-(4-methylpiperidin-1-yl)phenyl]-imidazo[2,1-b]-[1,3,4]thiadiazole] | 45% | 51% | 86% | 101% | 9% | 9% | 7% | 6%
